Measurements: PubChem BioAssay (NCI)
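How tested: cells in 96-well plates exposed to compound for 48 hours at five concentrations. GI50: concentration for 50% inhibition of growth. TGI is the concentration that stops growth completely.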

Key:
Assay in all cases: inhibition of tumour cell growth, NCI panel, 48 h
MALME-3M melanoma = system: MALME-3M melanoma
HS 578T breast = system: HS 578T breast
MDA-MB-231 breast = system: MDA-MB-231 breast
IGROV1 ovarian = system: IGROV1 ovarian
TK-10 renal = system: TK-10 renal
EKVX NSCLC = system: EKVX NSCLC
HT29 colon = system: HT29 colon
SF-539 CNS = system: SF-539 CNS
CCRF-CEM leukemia = system: CCRF-CEM leukemia
HCC-2998 colon = system: HCC-2998 colon
DU-145 prostate = system: DU-145 prostate
SNB-75 CNS = system: SNB-75 CNS
A549 NSCLC = system: A549 NSCLC
NCI-H522 lung = system: NCI-H522 lung
RXF 393 renal = system: RXF 393 renal
COLO 205 colon = system: COLO 205 colon
HOP-92 NSCLC = system: HOP-92 NSCLC
NCI-H226 lung = system: NCI-H226 lung
NCI-H23 lung = system: NCI-H23 lung
MDA-MB-435 = system: MDA-MB-435
M14 melanoma = system: M14 melanoma
ACHN renal = system: ACHN renal
U251 CNS = system: U251 CNS
K-562 leukemia = system: K-562 leukemia
BT-549 breast = system: BT-549 breast
786-0 renal = system: 786-0 renal
SK-OV-3 ovarian = system: SK-OV-3 ovarian
LOX IMVI melanoma = system: LOX IMVI melanoma
UACC-257 melanoma = system: UACC-257 melanoma
SN12C renal = system: SN12C renal
SF-295 CNS = system: SF-295 CNS
T-47D breast = system: T-47D breast
KM12 colon = system: KM12 colon
UO-31 renal = system: UO-31 renal
HCT-15 colon = system: HCT-15 colon
SR leukemia = system: SR leukemia
HL-60(TB) leukemia = system: HL-60(TB) leukemia
OVCAR-5 ovarian = system: OVCAR-5 ovarian
CAKI-1 renal = system: CAKI-1 renal
NCI/ADR-RES ovarian = system: NCI/ADR-RES ovarian
NCI-H460 lung = system: NCI-H460 lung
HOP-62 NSCLC = system: HOP-62 NSCLC
OVCAR-4 ovarian = system: OVCAR-4 ovarian
MCF7 breast = system: MCF7 breast
RPMI-8226 leukemia = system: RPMI-8226 leukemia
OVCAR-8 ovarian = system: OVCAR-8 ovarian
SK-MEL-28 melanoma = system: SK-MEL-28 melanoma
OVCAR-3 ovarian = system: OVCAR-3 ovarian
SW-620 colon = system: SW-620 colon
A498 renal = system: A498 renal
PC-3 prostate = system: PC-3 prostate
SK-MEL-2 melanoma = system: SK-MEL-2 melanoma
UACC-62 melanoma = system: UACC-62 melanoma
HCT-116 colon = system: HCT-116 colon
SNB-19 CNS = system: SNB-19 CNS
MOLT-4 leukemia = system: MOLT-4 leukemia
SF-268 CNS = system: SF-268 CNS
SK-MEL-5 melanoma = system: SK-MEL-5 melanoma

In the case of CSc1nc2sc3cc(Cl)ccc3n2c(=N)c1C#N, the GI50 (MALME-3M melanoma) is reported as 14.7 µM, the TGI (MALME-3M melanoma) is reported as greater than 100 µM and the GI50 (HS 578T breast) is reported as 2.89 µM. The TGI (HS 578T breast) was greater than 24.9 µM, the GI50 (MDA-MB-231 breast) was greater than 85.7 µM and the TGI (MDA-MB-231 breast) was greater than 100 µM. It also gave a GI50 (IGROV1 ovarian) greater than 49.2 µM, a TGI (IGROV1 ovarian) greater than 88.4 µM and a GI50 (TK-10 renal) of 14.1 µM. It also gave a TGI (TK-10 renal) greater than 73.3 µM, a GI50 (EKVX NSCLC) of 10.7 µM and a TGI (EKVX NSCLC) greater than 100 µM. It also gave a GI50 (HT29 colon) of 5.35 µM, a TGI (HT29 colon) greater than 100 µM and a GI50 (SF-539 CNS) of 15.2 µM. It also gave a TGI (SF-539 CNS) greater than 100 µM, a TGI (CCRF-CEM leukemia) greater than 100 µM and a GI50 (HCC-2998 colon) of 18.5 µM. The TGI (HCC-2998 colon) was greater than 100 µM, the GI50 (DU-145 prostate) was greater than 68.7 µM and the TGI (DU-145 prostate) was greater than 100 µM. For the same compound, the GI50 (SNB-75 CNS) was 2.27 µM, the TGI (SNB-75 CNS) was greater than 69.6 µM and the GI50 (A549 NSCLC) was 12.2 µM. For the same compound, the TGI (A549 NSCLC) was greater than 100 µM, the GI50 (NCI-H522 lung) was 62.7 µM and the TGI (NCI-H522 lung) was greater than 100 µM. For the same compound, the GI50 (RXF 393 renal) was 19.2 µM, the TGI (RXF 393 renal) was greater than 100 µM and the GI50 (COLO 205 colon) was 3.33 µM. It also gave a TGI (COLO 205 colon) greater than 100 µM, a GI50 (HOP-92 NSCLC) of less than 0.0468 µM and a TGI (HOP-92 NSCLC) of 4.77 µM. The GI50 (NCI-H226 lung) was 12.8 µM, the TGI (NCI-H226 lung) was greater than 100 µM and the GI50 (NCI-H23 lung) was greater than 52 µM. The TGI (NCI-H23 lung) was greater than 100 µM, the GI50 (MDA-MB-435) was greater than 100 µM and the TGI (MDA-MB-435) was greater than 100 µM. For the same compound, the GI50 (M14 melanoma) was greater than 54.7 µM, the TGI (M14 melanoma) was greater than 100 µM and the GI50 (ACHN renal) was greater than 62.2 µM. It also gave a TGI (ACHN renal) greater than 100 µM, a GI50 (U251 CNS) greater than 55 µM and a TGI (U251 CNS) greater than 100 µM. The GI50 (K-562 leukemia) was greater than 52.4 µM, the TGI (K-562 leukemia) was greater than 100 µM and the GI50 (BT-549 breast) was 25.4 µM. It also gave a TGI (BT-549 breast) greater than 100 µM, a GI50 (786-0 renal) of 6.15 µM and a TGI (786-0 renal) of 24 µM. It also gave a GI50 (SK-OV-3 ovarian) of 12.5 µM, a TGI (SK-OV-3 ovarian) greater than 100 µM and a GI50 (LOX IMVI melanoma) greater than 74.4 µM. For the same compound, the TGI (LOX IMVI melanoma) was greater than 100 µM, the GI50 (UACC-257 melanoma) was 6.05 µM and the TGI (UACC-257 melanoma) was greater than 100 µM. For the same compound, the GI50 (SN12C renal) was greater than 100 µM, the TGI (SN12C renal) was greater than 100 µM and the GI50 (SF-295 CNS) was 2.21 µM. It also gave a TGI (SF-295 CNS) of 16.1 µM, a GI50 (T-47D breast) of 23.7 µM and a TGI (T-47D breast) greater than 100 µM. For the same compound, the GI50 (KM12 colon) was 3.78 µM, the TGI (KM12 colon) was greater than 72 µM and the GI50 (UO-31 renal) was greater than 76.2 µM. For the same compound, the TGI (UO-31 renal) was greater than 100 µM, the GI50 (HCT-15 colon) was greater than 100 µM and the TGI (HCT-15 colon) was greater than 100 µM. It also gave a GI50 (SR leukemia) of 17.6 µM, a TGI (SR leukemia) greater than 100 µM and a GI50 (HL-60(TB) leukemia) of 7.71 µM. For the same compound, the TGI (HL-60(TB) leukemia) was greater than 100 µM, the GI50 (OVCAR-5 ovarian) was greater than 62.7 µM and the TGI (OVCAR-5 ovarian) was greater than 100 µM. For the same compound, the GI50 (CAKI-1 renal) was 17.1 µM, the TGI (CAKI-1 renal) was 88.2 µM and the GI50 (NCI/ADR-RES ovarian) was greater than 42.2 µM. For the same compound, the TGI (NCI/ADR-RES ovarian) was greater than 100 µM, the GI50 (NCI-H460 lung) was greater than 79.7 µM and the TGI (NCI-H460 lung) was greater than 100 µM. It also gave a GI50 (HOP-62 NSCLC) of 45.4 µM, a TGI (HOP-62 NSCLC) greater than 100 µM and a GI50 (OVCAR-4 ovarian) of 8.9 µM. The TGI (OVCAR-4 ovarian) was greater than 100 µM, the GI50 (MCF7 breast) was 3.31 µM and the TGI (MCF7 breast) was greater than 100 µM. The GI50 (RPMI-8226 leukemia) was greater than 80.6 µM, the TGI (RPMI-8226 leukemia) was greater than 100 µM and the GI50 (OVCAR-8 ovarian) was 17.4 µM. For the same compound, the TGI (OVCAR-8 ovarian) was greater than 100 µM, the GI50 (SK-MEL-28 melanoma) was 11.6 µM and the TGI (SK-MEL-28 melanoma) was greater than 100 µM. For the same compound, the GI50 (OVCAR-3 ovarian) was 11.8 µM, the TGI (OVCAR-3 ovarian) was greater than 100 µM and the GI50 (SW-620 colon) was 38.2 µM. For the same compound, the TGI (SW-620 colon) was greater than 100 µM, the GI50 (A498 renal) was 29.6 µM and the TGI (A498 renal) was greater than 100 µM. It also gave a GI50 (PC-3 prostate) of 42.2 µM, a TGI (PC-3 prostate) greater than 100 µM and a GI50 (SK-MEL-2 melanoma) of 15.5 µM. The TGI (SK-MEL-2 melanoma) was 48.5 µM, the GI50 (UACC-62 melanoma) was 17.7 µM and the TGI (UACC-62 melanoma) was greater than 100 µM. For the same compound, the GI50 (HCT-116 colon) was greater than 25.7 µM, the TGI (HCT-116 colon) was greater than 100 µM and the GI50 (SNB-19 CNS) was greater than 64.2 µM. For the same compound, the TGI (SNB-19 CNS) was greater than 100 µM, the GI50 (MOLT-4 leukemia) was 2.2 µM and the TGI (MOLT-4 leukemia) was greater than 23.6 µM. It also gave a GI50 (SF-268 CNS) of 14 µM, a TGI (SF-268 CNS) greater than 100 µM and a GI50 (SK-MEL-5 melanoma) of 3.2 µM. It also gave a TGI (SK-MEL-5 melanoma) greater than 25.9 µM.
